Measurements taken from patent US20150005347A1, “NITROGEN-CONTAINING HETEROCYCLIC DERIVATIVE HAVING 2-IMINO GROUP AND PEST CONTROL AGENT INCLUDING THE SAME” (MEIJI SEIKA PHARMA CO., LTD., priority 2012, published 2015).

Legend:
Assay type in all cases: in vivo
Musca domestica = test: Pest control test of Musca domestica adults, sucrose pledget; conditions: 50 ppm in 40% sucrose liquid; four days after release
Experimental: Test Example 21 Pest Control Test of Musca domestica
A drug solution of the compound of the present invention, which had been adjusted to be 50 ppm with a 40% sucrose liquid, was adsorbed on a pledget, and the pledget was put into a vial. Two adults reared indoors were released thereto. Thereafter, the adults were left to stand indoors at room temperature of 25° C. […] When two adults were all agonized in death, it was judged to be effective.

Aphis gossypii = test: Pest control test of Aphis gossypii, cucumber leaf disk foliar spray; conditions: Aphis gossypii, 72 h, first instar larvae, three days after release; for mortality at 20 ppm: foliar treatment at 20 ppm; for mortality at 20 ppm / mortality at 100 ppm: read-out: mortality of larvae; for mortality at 100 ppm: foliar treatment at 100 ppm
Experimental: Test Example 3 Pest Control Test of Aphis gossypii
(§1) A leaf disk having a diameter of 2.0 cm was cut out from a cucumber in pot culture, and a drug solution of the compound of the present invention at a predetermined concentration, which had been prepared so as to be a 50% acetone water (0.05% Tween20 available), was sprayed to the leaf disk. After an air drying process, first instar larvae were released thereto. Thereafter, the larvae were left to stand in a thermostatic chamber (16 hours of light period-8 hours of dark period) at 25° C. […] Test in duplicate.
(§2) Mortality of larvae(%)={number of dead larvae/(number of survived larvae+number of dead larvae)}×100

Plutella xylostella = Plutella xylostella control test, cabbage leaf disk foliar spray; conditions: Plutella xylostella, 72 h; foliar treatment at 100 ppm; second instar larvae; three days after release; read-out: mortality of larvae
Experimental: Test Example 1 Plutella xylostella Control Test
as §1, with “5.0” for “2.0”, “cabbage” for “cucumber”, “second” for “first”
mortality larvae(%)={number of dead larvae/(number of survived larvae+number of dead larvae)}×100

[1] = system: imidacloprid susceptible populations of Nilaparvata lugens; test: Soil irrigation test, imidacloprid susceptible populations of Nilaparvata lugens
Experimental: (§3) A rice seedling in pot culture was subjected to soil irrigation treatment with a drug solution of the compound of the present invention at a predetermined concentration, which had been prepared so as to be a 10% acetone water. […] Thereafter, the larvae were left to stand in a thermostatic chamber (16 hours of light period-8 hours of dark period) at 25° C. […] The test was performed in duplicate.
as §2
Further, for comparison, the test against some population of Nilaparvata lugens which is highly susceptible to imidacloprid was performed by the same method as described above, and the results thereof are shown in Table 43.
(§4) Further, for the origin of test pests, bugs collected outdoors within the Kumamoto prefecture in 2007 as the drug resistant Nilaparvata lugens, and bugs collected within the Kagoshima prefecture and then successively reared indoors for a long time as the imidacloprid susceptible populations of Nilaparvata lugens were used.

[2] = system: Nilaparvata lugens exhibiting drug resistance to imidacloprid; conditions: soil irrigation
Experimental: Test Example 18 Pest Control Test of Drug-Resistant Nilaparvata lugens
as §3, §2, §4

[3] = system: Trigonotylus caelestialium; test: Pest control test of Trigonotylus caelestialium, wheat seedling dipping; conditions: Trigonotylus caelestialium, 72 h; dipping treatment of the drug solution at 10 ppm; three days after treatment; read-out: mortality of larvae
Excerpt: Test Example 8 Pest Control Test of Trigonotylus caelestialium
Wheat seedling leaves and stems four days after the dissemination of seedlings were dipped for 30 seconds in a drug solution of the compound of the present invention at a predetermined concentration, which had been prepared so as to be a 50% acetone water (0.05% Tween20 available). After an air drying process, the wheat seedling leaves and stems were placed into a glass tube, and two second instar larvae of Trigonotylus caelestialium were released to the same glass tube. After the larvae were released, the tube was lidded to leave the larvae to stand in a thermostatic chamber at 25° C. In order to supply water to the wheat during the test, water was given to the wheat from the bottom of the glass tube.
as §2

[4] = system: Frankliniella occidentalis; test: Pest control test of Frankliniella occidentalis, kidney bean leaf disk foliar spray; conditions: Frankliniella occidentalis, 72 h; foliar treatment at 100 ppm; first instar larvae; three days after release; read-out: mortality of larvae
Excerpt: Test Example 7 Pest Control Test of Frankliniella occidentalis
as §1, with “2.8” for “2.0”, “kidney bean” for “cucumber”
as §2

| Compound | activity against adults (effective when two adults were all agonized in death) (Musca domestica) | further results |
| --- | --- | --- |
| FC(F)(F)C(=NC1CC1)N=c1ccccn1Cc1ccc(Cl)nc1 [Compound 1-50] | all the adults are agonized in death | – |
| FC(F)(F)C(=NCc1ccccn1)N=c1ccccn1Cc1ccc(Cl)nc1 [Compound 1-118] | all the adults are agonized in death | – |
| O=C(N=c1ccccn1Cc1ccc(Br)nc1)C(F)(F)Cl [Compound 4-4] | all the adults are agonized in death | – |
| O=C(N=c1ccccn1Cc1cnc(Cl)nc1)C(F)F [Compound 6-3] | all the adults are agonized in death | – |
| C=CCON=C(/N=c1\ccccn1Cc1ccc(Cl)nc1)C(F)(F)F [Compound 1-507, N′-(aryloxy)-N-[1-((6-chloropyridin-3-yl)methyl)pyridin-2(1H)-ylidene]-2,2,2-trifluoroacetimidamide] | – | mortality at 20 ppm (Aphis gossypii): ≥ 80%; mortality at 100 ppm (Aphis gossypii): ≥ 80%; mortality at 100 ppm (Plutella xylostella): ≥ 80% |
| O=C(N=c1ccccn1Cc1ccc(Br)nc1)C(F)F [Compound 4-3] | all the adults are agonized in death | – |
| O=C(/N=c1\ccccn1Cc1ccc(Cl)nc1)OCC(F)(F)F [Compound 1-17, 2,2,2-trifluoroethyl-[1-((6-chloropyridin-3-yl)methyl)pyridin-(2H)-ylidene]carbamate] | – | mortality at 100 ppm (Aphis gossypii): ≥ 80%; mortality at 500 ppm (Aphis gossypii; foliar treatment at 500 ppm): ≥ 80% |
| O=C(N=c1ccccn1Cc1cnc(Cl)c(F)c1)C(F)(F)Cl [Compound 5-4] | all the adults are agonized in death | – |
| O=C(N=c1ccccn1Cc1ccc(F)nc1)C(F)(F)Cl [Compound 3-4] | all the adults are agonized in death | – |
| FC(F)(F)C(=NCCOc1ccccc1)N=c1ccccn1Cc1ccc(Cl)nc1 [Compound 1-114] | all the adults are agonized in death | – |
| O=C(N=c1ccccn1Cc1ccc(F)nc1)C(F)(F)C(F)(F)F [Compound 3-5] | all the adults are agonized in death | – |
| FC(F)(Cl)C(=S)N=c1ccccn1Cc1ccc(Cl)nc1 [Compound 1-22] | all the adults are agonized in death | Insecticidal effects against Nilaparvata lugens (mortality of larvae %), Susceptible populations three days after the treatment ([1]; Rate 0.05 mg/pot): 75%; Insecticidal effects against Nilaparvata lugens (mortality of larvae %), Drug resistant populations three days after the treatment ([2]; Rate 0.05 mg/pot, drug resistant populations): 60%; insecticidal effects against drug resistant Nilaparvata lugens ([2]; imidacloprid-resistant): high insecticidal effects; mortality of larvae against drug resistant populations compared with susceptible populations of Nilaparvata lugens ([2]; imidacloprid-resistant vs susceptible): equivalent mortality of larvae |
| C#CCN=C(N=c1ccccn1Cc1ccc(Cl)nc1)C(F)(F)F [Compound 1-56] | all the adults are agonized in death | – |
| CCCNC(=O)O/N=C(/N=c1\ccccn1Cc1ccc(Cl)nc1)C(F)(F)F [Compound 1-534, N-[1-((6-chloropyridin-3-yl)methyl)pyridin-2(1H)-ylidene]-2,2,2-trifluoro-N′-((propylcarbamoyl)oxy)acetimidamide] | – | mortality at 100 ppm (Plutella xylostella): ≥ 80% |
| CSCCN=C(N=c1ccccn1Cc1ccc(Cl)nc1)C(F)(F)F [Compound 1-150] | all the adults are agonized in death | – |
| CCN=C(N=c1ccccn1Cc1ccc(Cl)nc1)C(F)(F)F [Compound 1-43] | all the adults are agonized in death | – |

| Compound | activity against adults (effective when two adults were all agonized in death) (Musca domestica) | further results |
| --- | --- | --- |
| O=C(N=c1ccccn1Cc1ccc(Br)nc1)C(F)(F)C(F)(F)F [Compound 4-5] | all the adults are agonized in death | – |
| CON=C(N=c1ccccn1Cc1ccc(Cl)nc1)C(F)(F)F [Compound 1-500] | all the adults are agonized in death | – |
| O=C(/N=c1\ccccn1Cc1ccc(F)nc1)C(F)F [Compound 3-3, 2,2-difluoro-N-[1-((6-fluoropyridin-3-yl)methyl)pyridin-2(1H)-ylidene]acetamide] | all the adults are agonized in death | mortality at 20 ppm (Aphis gossypii): ≥ 80%; mortality at 100 ppm (Aphis gossypii): ≥ 80%; mortality at 100 ppm (Plutella xylostella): ≥ 80%; mortality at 10 ppm [3]: ≥ 80%; mortality at 100 ppm [4]: ≥ 80% |
| Cc1ccc(S(=O)(=O)ON=C(N=c2ccccn2Cc2ccc(Cl)nc2)C(F)(F)F)cc1 [Compound 1-531] | all the adults are agonized in death | – |
| O=C(N=c1ccccn1Cc1cnc(Cl)nc1)C(F)(F)Cl [Compound 6-4] | all the adults are agonized in death | – |
| O=C(N=c1ccccn1Cc1cnc(Cl)c(F)c1)C(F)(F)C(F)(F)F [Compound 5-5] | all the adults are agonized in death | – |
| FC(F)(F)C(=NCc1cccnc1)N=c1ccccn1Cc1ccc(Cl)nc1 [Compound 1-119] | all the adults are agonized in death | – |
| O=C(/N=c1\ncccn1Cc1ccc(Cl)nc1)C(F)(F)F [Compound 190-2, N-[1-((6-chloropyridin-3-yl)methyl)pyrimidin-2(1H)-ylidene]-2,2,2-trifluoroacetamide] | – | mortality at 20 ppm (Aphis gossypii): ≥ 80%; mortality at 100 ppm (Aphis gossypii): ≥ 80% |
| C#CCC(=O)ON=C(N=c1ccccn1Cc1ccc(Cl)nc1)C(F)(F)F [Compound 1-518] | all the adults are agonized in death | – |
| FC(F)(F)C(=S)N=c1ccccn1Cc1cnc(Cl)s1 [Compound 2-20] | all the adults are agonized in death | – |
| CCCN=C(N=c1ccccn1Cc1ccc(Cl)nc1)C(F)(F)F [Compound 1-44] | all the adults are agonized in death | – |
| O=C(N=c1cccnn1Cc1ccc(Cl)nc1)C(F)(F)F [Compound 223-2] | all the adults are agonized in death | – |
| FC(F)(F)C(=NCc1ccccc1)N=c1ccccn1Cc1ccc(Cl)nc1 [Compound 1-72] | all the adults are agonized in death | – |
| O=[N+]([O-])NC1=NCCN1Cc1ccc(Cl)nc1 [Imidacloprid] | – | Insecticidal effects against Nilaparvata lugens (mortality of larvae %), Susceptible populations three days after the treatment ([1]; Rate 0.01 mg/pot): 73%; Insecticidal effects against Nilaparvata lugens (mortality of larvae %), Susceptible populations three days after the treatment ([1]; Rate 0.05 mg/pot): 90% |
| O=C(N=c1ccccn1Cc1cnc(Cl)nc1)C(F)(F)C(F)(F)F [Compound 6-5] | all the adults are agonized in death | – |
